Data as given in patent US20240131173A1, “PROTACS WITH TRANSCRIPTION FACTOR TARGETING MOIETIES” (Beth Israel Deaconess Medical Center, Inc., priority 2021, published 2024).
Entries after “also recorded” stand apart in the source; their conditions may differ.

How the values were obtained:
[1] = biological target: T1, p65 (Homo sapiens, UniProt Q04206); assay: In vivo ubiquitination assay of p65 (Ni-NTA pulldown); type: cell-based; conditions: HEK293T cells, Flag-p65 24 hours, then dNF-κB 12 hours
Protocol: Denatured in vivo ubiquitination assays were performed as previously described 41. Briefly, HEK293T cells were firstly transfected with Flag-p65 or HA-E2F1 for 24 hours, followed by additional transfection of individual TF-PROTAC for another 12 hours. Before been harvested, HEK293T cells were treated with 30 μM of MG132 for 4 hours. After having been harvested in denatured buffer A (6 M guanidine-HCI, pH 8.0, 0.1 M Na2HPO4/NaH2PO4, and 10 mM imidazole) and sonication for 10 seconds, cell lysis was incubation with Ni-nitrilotriacetic acid (NTA) matrices under rotation for 3 hours at room temperature. The pulldown products were washed sequentially twice in buffer A, twice in buffer A/TI mixture (buffer A, buffer TI=1:3, v/v), and once in buffer TI (25 mM tris-HCl, pH 6.8, and 20 mM imidazole). The ubiquitinated proteins were finally separated by 7% SDS-PAGE and blotted with individual antibody.
Target sequence in this assay (Q04206 whole entry): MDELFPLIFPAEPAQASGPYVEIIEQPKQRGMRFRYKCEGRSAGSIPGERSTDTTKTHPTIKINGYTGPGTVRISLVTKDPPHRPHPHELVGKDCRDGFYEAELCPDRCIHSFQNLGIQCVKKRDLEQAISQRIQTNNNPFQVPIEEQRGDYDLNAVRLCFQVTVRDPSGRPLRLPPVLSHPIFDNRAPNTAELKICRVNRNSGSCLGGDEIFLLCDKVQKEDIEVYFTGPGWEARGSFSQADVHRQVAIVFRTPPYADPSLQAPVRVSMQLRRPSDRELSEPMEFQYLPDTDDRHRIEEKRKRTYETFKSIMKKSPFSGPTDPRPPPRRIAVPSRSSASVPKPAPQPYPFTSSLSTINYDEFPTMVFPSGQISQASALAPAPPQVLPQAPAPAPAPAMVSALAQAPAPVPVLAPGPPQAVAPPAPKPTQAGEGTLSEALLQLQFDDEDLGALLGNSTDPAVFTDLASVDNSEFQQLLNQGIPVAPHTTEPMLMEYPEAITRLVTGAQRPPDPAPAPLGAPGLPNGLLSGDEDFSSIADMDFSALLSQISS

[2] = biological target: T2, p65 (Homo sapiens, UniProt P19838+Q04206); assay: Western blot of p65 in HeLa cells transfected with TF-PROTAC; type: cell-based; conditions: 12 hours, dNF-κB #1-#18 compared
T2 construct: endogenous in cells; host or cells: HeLa
Protocol: (§1) Human embryonic kidney 293T (HEK293T) and HeLa cells were maintained in Dulbecco's Modified Eagle's Medium (DMEM) containing 10% fetal bovine serum (FBS), 100 Units/mL of penicillin and 100 μg/mL streptomycin. For ectopic expression of transcription factors, Flag-p65 and HA-E2F1 were transfected into HEK293T cells and harvested for lysis 48 hours after transfection. For TF-PROTACs treatment, HeLa cells in 12-well plate were transfected with individual TF-PROTAC for 12 hours, followed by harvest for western blot analysis. […] For depletion of endogenous VHL E3 ligase, two sgRNA for VHL E3 ligase were synthesized and inserted into lenti-CRISPR-V2 construct 40. The sgVHL lentivirus were generated in HEK293T cells as previously described 41-42 for infection of HeLa cells overnight, followed by selection with puromycin for 72 h.
Cells were lysed in EBC buffer supplemented with protease inhibitors cocktail and phosphatase inhibitors, and the protein concentrations were measured as described above. The lysates (40 ug protein) were then resolved by 10% SDS-PAGE at 130 V for 80 min and immunoblotted with indicated antibodies at 4° C. overnight, washed 4 times with Tris-buffered saline with 0.1% Tween-20 (TBST), incubated with secondary antibody for 1 hour at room temperature, and then washed 4 times with TBST buffer. Anti-p65 (#8742, 1:1,000) and E2F1 (#3742, 1:500) antibodies were purchased from Cell Signaling Technologies. Anti-HA antibody (#901513, 1:1,000) was purchased from Biolegend. Anti-Flag (F3165, 1:5,000), anti-vinculin antibody (V-4505, 1:50,000), peroxidase-conjugated anti-mouse secondary antibody (A-4416, 1:3,000) and peroxidase-conjugated anti-rabbit secondary antibody (A-4914, 1:3,000) were purchased from Sigma. All primary antibodies were diluted in 5% bovine serum albumin (BSA) in TBST buffer, and secondary antibodies were diluted in 5% non-fat milk in TBST buffer.

[3] = biological target: T3, VHL E3-PROTAC-p65 ternary complex (Homo sapiens, UniProt P40337+Q04206); assay: GST pulldown assay of VHL E3 ligase complex and p65 with TF-PROTAC; type: binding; conditions: GST-VHL complex from E. coli, HEK293T lysate with Flag-p65, in vitro
T3 construct: made in house; host or cells: E. coli BL21(DE3) for the GST-VHL/Elongin B/C complex; HEK293T lysate for Flag-p65
Excerpt: Furthermore, dNF-κB is capable of recruiting VHL E3 ubiquitin ligase to POI, NF-κB. […] However, dNF-κB obtained in current stage could not efficiently promote the degradation of p65 in cells, which prompted further optimization of the length of linker between the VHL ligand and DNA oligomer moieties for achieving efficient destruction of NF-κB in cells.
(§2) pGEX-GST-VHL/ElonginB construct was kindly gift from Dr. William Kaelin, Jr. at Dana-Farber Cancer Institute, Harvard Medical School. pGEX-GST-Elongin C plasmid was generated by subcloning Elongin C CDS into the BamHI and Xhol sites of pGEX-4T1-GST vector. The GST-VHL/ElonginB/C complex was purified as described 43. Briefly, BL21(DE3) E. coli was cotransfected with pGEX-GST-VHL/ElonginB and pGEX-GSTElonginC plasmid. Protein expression was induced by 100 μM isopropyl beta-D-thiogalactopyranoside (IPTG, Fisher Scientific) at 18° C.overnight. Then, the bacterial culture was centrifuged and sonicated in PBS buffer with protease inhibitor cocktail. Protein lysates were further purified with glutathione-Sepharose beads (GE17-0756-05) and washed with PBS for 5 times.
(§3) Glutathione-Sepharose beads loaded with GST-VHL E3 ligase complex were incubated at 4° C. with cell lysate derived from HEK293T cells that ectopic transfected with individual transfection factor. After incubation for 3 hours, TF-PROTACs were added into the mixture for another 2 hours, followed by wash with NETN buffer for 3 times. The pulldown products were further separated by 10% SDS-PAGE and blotted for indicated proteins.

[4] = biological target: T1, p65; assay: Streptavidin-biotin pulldown / competition assay of NF-κB-ODN with Flag-p65; type: binding; conditions: excess competitor
Protocol: To determine whether NF-κB-ODN binds with NF-κB properly, we also synthesized a biotin-modified version of NF-κB-ODN (hereafter termed as Biotin-NF-κB-ODN, FIGS. 3A-3C).
HEK293T cells that ectopically expressed either Flag-p65 or HAE2F1 were lysed by EBC buffer (50 mM Tris pH 7.5, 120 mM NaCl, 0.5% NP-40) supplemented with protease inhibitors (Pierce) and phosphatase inhibitors (phosphatase inhibitor cocktail set I and II, Calbiochem). The protein concentrations of the lysates were measured using the Bio-Rad protein assay reagent on a Beckman Coulter DU-800 spectrophotometer. The cell lysates (1 mg) were further incubated with biotin-ODN at 4 °C for 3 hours, followed by adding 10 μL of Streptavidin agarose beads (Thermo Fisher) for another 1 hour. The beads were washed 4 times with NETN buffer (100 mM NaCl, 20 mM Tris-Cl, pH 8.0, 0.5 mM EDTA, 0.5% NP-40), boiled in SDS loading buffer and further separated by 10% SDS-PAGE and blotted with individual antibody.
Target sequence in this assay (Q04206 whole entry): as above

[5] = system: HeLa cells; assay: Cell growth curve assay (cell number); type: cell-based, human; conditions: 10 ug/mL
Protocol: (§4) For cell growth curve assay, HeLa cells (10, 000/well) in 12-well plate were transfected with individual TF-PROTAC, then the cells were trypsined and the cell number were counted at indicated time. For the clonal formation assay, HeLa cells were transfected with individual TF-PROTAC for 12 hours, followed by further plated into 6-well plate (1,000/well). Three weeks later, the cells were fixed in fixation buffer (acetic acid: methanol=1:7) and stained with 0.4% crystal violet in 20% ethanol. Then clonal number were quantified by Image J software. As various changes can be made in the above-described subject matter without departing from the scope and spirit of the present disclsoure, it is intended that all subject matter contained in the above description, or defined in the appended claims, be interpreted as descriptive and illustrative. Many modifications and variations of the present disclosure are possible in light of the above teachings. Accordingly, the present description is intended to embrace all such alternatives, modifications and variances which fall within the scope of the appended claims.

[6] = system: HeLa cells; assay: Clonal (colony) formation assay; type: cell-based, human; conditions: HeLa cells
Protocol: as §4

[7] = biological target: T1, p65; assay: Western blot of p65 in HeLa cells transfected with TF-PROTAC; type: cell-based; parameters: endogenous in cells; host or cells: HeLa; conditions: 10 uM MG132
Protocol: as §1
Target sequence in this assay (Q04206 whole entry): as above
Target sequence in this assay (P19838 1-433 limits assumed, further chain): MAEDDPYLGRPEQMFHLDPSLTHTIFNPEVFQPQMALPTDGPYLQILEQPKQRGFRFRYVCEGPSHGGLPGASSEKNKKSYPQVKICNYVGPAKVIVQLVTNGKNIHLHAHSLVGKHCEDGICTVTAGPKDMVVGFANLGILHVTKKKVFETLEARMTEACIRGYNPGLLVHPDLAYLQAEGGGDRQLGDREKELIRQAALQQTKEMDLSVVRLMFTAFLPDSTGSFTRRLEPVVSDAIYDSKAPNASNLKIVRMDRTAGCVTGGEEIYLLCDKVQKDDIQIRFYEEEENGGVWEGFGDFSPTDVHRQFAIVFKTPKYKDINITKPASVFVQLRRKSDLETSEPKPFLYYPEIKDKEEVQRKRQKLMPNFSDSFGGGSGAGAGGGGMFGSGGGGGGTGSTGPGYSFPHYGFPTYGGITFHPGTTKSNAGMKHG
Cells were lysed in EBC buffer supplemented with protease inhibitors cocktail and phosphatase inhibitors, and the protein concentrations were measured as described above. The lysates (40 ug protein) were then resolved by 10% SDS-PAGE at 130 V for 80 min and immunoblotted with indicated antibodies at 4° C. overnight, washed 4 times with Tris-buffered saline with 0.1% Tween-20 (TBST), incubated with secondary antibody for 1 hour at room temperature, and then washed 4 times with TBST buffer. […]

[8] = biological target: T4, VHL E3 ubiquitin ligase and E2F1 transcription factor (Homo sapiens, UniProt P40337+Q01094+Q14186); assay: GST pulldown assay of VHL E3 ligase complex and E2F1 with TF-PROTAC; type: binding; conditions: in vitro pulldown
T4 construct: made in house; host or cells: E. coli BL21(DE3) for the GST-VHL/Elongin B/C complex; HEK293T lysate for the transfected transcription factor
Protocol: as §2, §3

T3 sequence (P40337 whole entry): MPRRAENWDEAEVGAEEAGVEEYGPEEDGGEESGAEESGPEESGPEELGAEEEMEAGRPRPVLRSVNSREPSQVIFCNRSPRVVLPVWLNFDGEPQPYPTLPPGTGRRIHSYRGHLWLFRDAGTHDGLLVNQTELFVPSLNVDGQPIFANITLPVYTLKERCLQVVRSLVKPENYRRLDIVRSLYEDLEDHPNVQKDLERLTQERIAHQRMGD
T3 sequence (Q15370 whole entry partner): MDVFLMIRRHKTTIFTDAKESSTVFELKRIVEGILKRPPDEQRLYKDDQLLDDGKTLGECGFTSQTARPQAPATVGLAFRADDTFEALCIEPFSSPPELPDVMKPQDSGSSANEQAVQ
T3 sequence (Q15369 whole entry partner): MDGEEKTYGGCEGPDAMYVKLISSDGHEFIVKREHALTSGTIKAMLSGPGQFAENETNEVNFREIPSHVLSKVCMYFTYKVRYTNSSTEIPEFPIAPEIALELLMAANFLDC
T3 sequence (Q04206 whole entry): as the sequence (Q04206 whole entry) above
T2 sequence (Q04206 whole entry): as above
T2 sequence (P19838 1-433 limits assumed): as the sequence (P19838 1-433 limits assumed, further chain) above
T4 sequence (P40337 whole entry): as the sequence (P40337 whole entry) above
T4 sequence (Q15370 whole entry partner): as the sequence (Q15370 whole entry partner) above
T4 sequence (Q15369 whole entry partner): as the sequence (Q15369 whole entry partner) above
T4 sequence (Q01094 whole entry): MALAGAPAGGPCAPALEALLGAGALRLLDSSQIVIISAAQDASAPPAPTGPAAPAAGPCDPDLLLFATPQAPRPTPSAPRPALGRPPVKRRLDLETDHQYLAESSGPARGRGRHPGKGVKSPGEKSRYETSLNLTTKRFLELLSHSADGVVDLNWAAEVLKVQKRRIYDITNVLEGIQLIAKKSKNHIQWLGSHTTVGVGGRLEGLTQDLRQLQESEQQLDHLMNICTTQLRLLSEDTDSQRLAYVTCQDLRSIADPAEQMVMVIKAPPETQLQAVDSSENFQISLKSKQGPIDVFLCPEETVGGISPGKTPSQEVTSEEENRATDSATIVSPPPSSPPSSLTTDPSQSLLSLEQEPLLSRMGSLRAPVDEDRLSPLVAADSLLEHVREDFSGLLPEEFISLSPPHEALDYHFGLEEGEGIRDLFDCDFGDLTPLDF
T4 sequence (Q14186 whole entry): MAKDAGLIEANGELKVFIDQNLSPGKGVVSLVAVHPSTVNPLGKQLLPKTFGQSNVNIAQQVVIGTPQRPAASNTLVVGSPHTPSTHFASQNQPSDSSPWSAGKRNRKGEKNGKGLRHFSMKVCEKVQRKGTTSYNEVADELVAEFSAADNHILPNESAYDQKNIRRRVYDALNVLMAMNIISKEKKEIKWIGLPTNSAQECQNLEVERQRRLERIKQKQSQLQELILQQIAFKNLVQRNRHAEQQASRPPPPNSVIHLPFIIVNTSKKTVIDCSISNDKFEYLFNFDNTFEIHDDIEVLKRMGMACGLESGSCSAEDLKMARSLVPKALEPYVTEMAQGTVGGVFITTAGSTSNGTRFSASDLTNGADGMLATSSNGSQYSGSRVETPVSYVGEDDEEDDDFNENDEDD

| Substance | ubiquitination of p65 in cells [1] | p65 signal / degradation efficiency in western blot [2] | VHL E3 ligase-p65 binding (ternary complex) induced by PROTAC [3] | competition with Biotin-NF-κB-ODN for binding to p65 [4] | further results |
| --- | --- | --- | --- | --- | --- |
| dNF-κB #4 (TGGGGACTTTCCAGTTTCTGGAAAGTCCCCA; VHL ligand conjugate via C4 linker, further chemistry not given here) | lead to the ubiquitination of p65 in cells | lowest p65 signal | recruited the binding between the VHL E3 ubiquitin ligase and p65 in vitro | – | – |
| N3-NF-κB-ODN: azide modification version of NF-κB-ODN, azide group on the 5′ end through the 5′ amino modifier C6 (TGGGGACTTTCCAGTTTCTGGAAAGTCCCCA; chemistry not fully specified) [Compound N3-NF-κB-ODN] | – | – | – | competed with Biotin-NF-κB-ODN for the binding with p65 | – |
| dNF-κB #7 (TGGGGACTTTCCAGTTTCTGGAAAGTCCCCA; VHL ligand conjugate via C7 linker, further chemistry not given here) | lead to the ubiquitination of p65 in cells | lowest p65 signal | recruited the binding between the VHL E3 ubiquitin ligase and p65 in vitro | – | – |
| dNF-κB #15 (TGGGGACTTTCCAGTTTCTGGAAAGTCCCCA; decoy; VHL ligand conjugate via PEG2 linker, further chemistry not given here) | lead to the ubiquitination of p65 in cells | lowest p65 signal; also recorded: best degradation efficiency | recruited the binding between the VHL E3 ubiquitin ligase and p65 in vitro | – | proliferation of HeLa cells (cell number) [5]: repressed the proliferation of HeLa cells; tumorigenesis ability (colony formation) [6]: inhibited; degradation of endogenous p65 under proteasome inhibitor MG132 [7]: blocked the degradation of endogenous p65 |
| dNF-κB #1 (TGGGGACTTTCCAGTTTCTGGAAAGTCCCCA; DNA, backbone and methylation of C not given here; further chemistry not fully specified) | – | – | induced the VHL E3-PROTAC-p65 ternary complex formation | competed with Biotin NF-κB for binding to RelA/p65 | – |
| dNF-κB #18 (TGGGGACTTTCCAGTTTCTGGAAAGTCCCCA; decoy; VHL ligand conjugate via PEG5 linker, further chemistry not given here) | lead to the ubiquitination of p65 in cells | lowest p65 signal | recruited the binding between the VHL E3 ubiquitin ligase and p65 in vitro | – | – |
| 5′-TGGGGACTTTCCAGTTTCTGGAAAGTCCCCA-3′ (chemistry not given here) [NF-κB-ODN, reference compound] | – | – | – | competed with Biotin-NF-κB-ODN for the binding with p65 | tumorigenesis ability (colony formation) [6]: not |
| dE2F #15 (chain 1 CTAGATTTCCCGCG; chain 2 CTAGCGCGGGAAAT; DNA, backbone and methylation of C not given here; further chemistry not fully specified) | – | – | – | – | binding between VHL E3 ubiquitin ligase and E2F1 recruited by PROTAC [8]: recruited the binding between the VHL E3 ubiquitin ligase and E2F1 transcription factor in vitro |
